{"source": "patent US10590147B1", "about": "“Spirooxindole-pyrrolothiazole heterocyclic hybrids” (KING SAUD UNIVERSITY, priority 2019, dated 2020)", "assay_type_in_all_cases": "cell-based", "key": {"Escherichia coli [1]": {"system": "Escherichia coli", "experiment": "MIC/MBC by two-fold dilution, microtiter 96 well plate method", "conditions": "E. coli (ATCC—25922), standard/control strain", "protocol": "(§1) Compounds 6a and 6b were tested for their antimicrobial activity against both gram positive and gram negative drug-resistant bacteria. Minimum inhibitory concentration (MIC) and minimum bactericidal concentration (MBC) values for compounds 6a and 6b, as compared with a reference antibacterial drug (ampicillin), for Escherichia coli (EC), Pseudomonas aeruginosa (PS), Salmonella typhi (ST), Staphylococcus aureus (SA), and Staphylococcus epidermis (SE) are reported in Tables 2A and 2B.\n(§2) The quantitative and qualitative screening of anti-bacterial activity of compounds 6a and 6b was conducted, the results being described above. Quantitative screening was determined by minimal inhibitory concentration (MIC) and minimal bactericidal concentration (MBC), while qualitative screening was accomplished by disc diffusion method. E. coli (ATCC—25922) and S. epidermis (ATCC 12228) were used as standard strains, and drug-resistant pathogens P. aeruginosa, S. typhi, and S. aureus were used to screen the antimicrobial activity. Gram negative bacteria were maintained on nutrient broth (NB)/agar plates (NA) and gram positive bacteria were maintained on trypticase soy broth (TSB)/agar plates (TSA). The compounds 6a and 6b concentration range was prepared by two-fold dilution in a sterile broth from the stock, using a microtiter 96 well plate method. Twelve dilutions of each compound, ranging from 7500 to 3.65 μg/ml, were tested, and Ampicillin was used as a positive control agent (with a range of 500 to 0.24 μg/ml)."}, "Staphylococcus epidermis [2]": {"system": "Staphylococcus epidermis", "experiment": "MIC/MBC by two-fold dilution, microtiter 96 well plate method", "conditions": "S. epidermis (ATCC 12228), standard/control strain", "protocol": "as §1, §2"}, "Pseudomonas aeruginosa [3]": {"system": "Pseudomonas aeruginosa", "experiment": "Disc diffusion, zone of inhibition", "design": "key to Zone of inhibition (class): R: Resistant", "conditions": "drug-resistant P. aeruginosa; for Zone of inhibition: diameter: 37° C., 24h", "protocol": "(§3) The qualitative screenings of antimicrobial activity were measured by plating in petri dishes to determine the formation of zones of inhibition for bacterial pathogens tested against compounds 6a, 6b and the standard antibiotic ampicillin.\nas §2\n(§4) The mid log bacterial inoculum was speeded on NA/TSA and the loaded disc was placed on agar plates and incubated at 37° C. for 24h. After this period, the inhibitions produced by the compounds around the disc were measured using antibiotic zone scale (Hi-Media, Mumbai, India) and zone of inhibitions were measured in mm."}, "Salmonella typhi [4]": {"system": "Salmonella typhi", "experiment": "Disc diffusion, zone of inhibition", "design": "key to Zone of inhibition (class): R: Resistant", "conditions": "drug-resistant S. typhi; for Zone of inhibition: diameter: 37° C., 24h", "protocol": "as §3, §2, §4"}, "Staphylococcus aureus [5]": {"system": "Staphylococcus aureus", "experiment": "Disc diffusion, zone of inhibition", "design": "key to Zone of inhibition (class): R: Resistant", "conditions": "drug-resistant S. aureus; for Zone of inhibition: diameter: 37° C., 24h", "protocol": "as §3, §2, §4"}, "Escherichia coli [6]": {"system": "Escherichia coli", "experiment": "Disc diffusion, zone of inhibition", "conditions": "E. coli control strain; for Zone of inhibition: diameter: 37° C., 24h", "protocol": "as §3, §2, §4"}, "Staphylococcus epidermis [7]": {"system": "Staphylococcus epidermis", "experiment": "Disc diffusion, zone of inhibition", "conditions": "S. epidermis control strain; for Zone of inhibition: diameter: 37° C., 24h", "protocol": "as §3, §2, §4"}, "Pseudomonas aeruginosa [8]": {"system": "Pseudomonas aeruginosa", "experiment": "MIC/MBC by two-fold dilution, microtiter 96 well plate method", "conditions": "drug-resistant P. aeruginosa", "protocol": "as §1, §2"}, "Salmonella typhi [9]": {"system": "Salmonella typhi", "experiment": "MIC/MBC by two-fold dilution, microtiter 96 well plate method", "conditions": "drug-resistant S. typhi", "protocol": "as §1, §2"}, "Staphylococcus aureus [10]": {"system": "Staphylococcus aureus", "experiment": "MIC/MBC by two-fold dilution, microtiter 96 well plate method", "conditions": "drug-resistant S. aureus", "protocol": "as §1, §2"}, "P. aeruginosa": {"system": "P. aeruginosa", "experiment": "AO/EB live/dead bacterial double staining", "conditions": "P. aeruginosa treated at MIC, 4 hours; fluorescent microscope", "protocol": "(§5) The acridine orange (AO) and ethidium bromide (EB) double staining method was used to analyse the Live/dead bacterial cells for untreated and compound 6a-treated S. aureus and P. aeruginosa cells. Both sets of cells, treated and untreated for each of the two bacteria, were stained with AO/EB for 15 minutes. The unbound dyes were removed by rinsing the cells twice with phosphate buffer saline (PBS). 10 μl samples of each were then placed on a glass slide with coverslip, and observed using a ZEISS inverted florescent microscope. The untreated gram positive (FIG. 6A) and gram negative (FIG. 6C) bacterial cells appeared green due to the presence of healthy, viable cells with intact/undamaged cell membranes and uniform chromatin. In contrast, the compound 6a-treated cells (treated gram positive in FIG. 6B, and treated gram negative in 6D) appeared red due to the resulting dents, blisters and damaged cell walls on bacterial cells, providing entry for the EB dye. Thus, the AO/EB double staining confirms the bactericidal action of compound 6a through cell wall and cell membrane damage.\n(§6) Fluorescent dye stock solution was prepared by dissolving equal quantities of acridine orange (AO) and ethidium bromide (EB)—10 mg each—in 10 ml of PBS. The working solution was prepared by diluting 200 μl of stock solution into 10 ml of PBS. […]"}, "S. aureus": {"system": "S. aureus", "experiment": "AO/EB live/dead bacterial double staining", "conditions": "S. aureus treated at MIC, 4 hours; fluorescent microscope", "protocol": "as §5, §6"}}, "note": "Several values for one entry are separate records, joined by “and”; a condition that tells them apart may be missing. Equal values may be shown once. Entries after “also recorded” stand apart in the source; their conditions may differ. Read-outs that look alike come from different tables or passages of the source."}
{"smiles": "CC1(C)S[C@@H]2[C@H](NC(=O)[C@H](N)c3ccccc3)C(=O)N2[C@H]1C(=O)O", "note": "[Ampicillin, reference compound]", "values": [{"measurement": "MBC", "setting": "Escherichia coli [1]; Escherichia coli, read-out: MBC", "value": 7.81, "unit": "µg/mL"}, {"measurement": "MIC", "setting": "Escherichia coli [1]; Escherichia coli, read-out: MIC", "value": 3.9, "unit": "µg/mL"}, {"measurement": "MBC", "setting": "Staphylococcus epidermis [2]; Staphylococcus, ATCC12228, read-out: MBC", "value": 7.81, "unit": "µg/mL"}, {"measurement": "MIC", "setting": "Staphylococcus epidermis [2]; Staphylococcus, ATCC12228, read-out: MIC", "value": 3.9, "unit": "µg/mL"}, {"measurement": "Zone of inhibition (class)", "setting": "Pseudomonas aeruginosa [3]; 25 μg/disc", "value": "R"}, {"measurement": "Zone of inhibition (class)", "setting": "Salmonella typhi [4]; 25 μg/disc", "value": "R"}, {"measurement": "Zone of inhibition (class)", "setting": "Staphylococcus aureus [5]; 25 μg/disc", "value": "R"}, {"measurement": "zone of inhibition at 25 µg/disc", "setting": "Staphylococcus aureus [5]; Staphylococcus aureus, 25 μg/disc, read-out: Zone of inhibition: diameter", "value": "< 13", "unit": "mm"}, {"measurement": "zone of inhibition at 25 µg/disc", "setting": "Escherichia coli [6]; Escherichia coli, 25 μg/disc, read-out: Zone of inhibition: diameter", "value": "22.3 ± 1.77", "unit": "mm"}, {"measurement": "zone of inhibition at 25 µg/disc", "setting": "Staphylococcus epidermis [7]; Staphylococcus, 25 μg/disc, read-out: Zone of inhibition: diameter", "value": 23.3, "unit": "mm"}]}
{"smiles": "O=C1C(=Cc2ccc(F)cc2)CNCC12C(c1ccc(F)cc1)C1CSCN1C21C(=O)Nc2ccccc21", "note": "(stereo not drawn) [Compound 6a, spiro[5.3″ ]-oxindole-spiro-[6.2′]-6′-(4-fluorophenylmethylidene)tetrahydro-4′(1H)-pyridinone-7-(4-fluorophenyl)tetrahydro-1H-pyrrolo[1,2-c][1,3] thiazole]", "values": [{"measurement": "MBC", "setting": "Escherichia coli [1]", "value": 29.25, "unit": "µg/mL"}, {"measurement": "MIC", "setting": "Escherichia coli [1]", "value": 14.62, "unit": "µg/mL"}, {"measurement": "MBC", "setting": "Pseudomonas aeruginosa [8]", "value": 58.55, "unit": "µg/mL"}, {"measurement": "MIC", "setting": "Pseudomonas aeruginosa [8]", "value": 29.25, "unit": "µg/mL"}, {"measurement": "MBC", "setting": "Salmonella typhi [9]", "value": 58.55, "unit": "µg/mL"}, {"measurement": "MIC", "setting": "Salmonella typhi [9]", "value": 29.25, "unit": "µg/mL"}, {"measurement": "MBC", "setting": "Staphylococcus aureus [10]", "value": 58.55, "unit": "µg/mL"}, {"measurement": "MIC", "setting": "Staphylococcus aureus [10]", "value": 29.25, "unit": "µg/mL"}, {"measurement": "MBC", "setting": "Staphylococcus epidermis [2]", "value": 29.25, "unit": "µg/mL"}, {"measurement": "MIC", "setting": "Staphylococcus epidermis [2]", "value": 14.62, "unit": "µg/mL"}, {"measurement": "Zone of inhibition: diameter", "setting": "Pseudomonas aeruginosa [3]; 60 μg/disc", "value": "19.3±0.81", "unit": "mm"}, {"measurement": "Zone of inhibition: diameter", "setting": "Salmonella typhi [4]; 60 μg/disc", "value": "22.3±1.47", "unit": "mm"}, {"measurement": "Zone of inhibition: diameter", "setting": "Staphylococcus aureus [5]; 60 μg/disc", "value": "26.3±0.81", "unit": "mm"}, {"measurement": "Zone of inhibition: diameter", "setting": "Escherichia coli [6]; 60 μg/disc", "value": "27.3±1.08", "unit": "mm"}, {"measurement": "Zone of inhibition: diameter", "setting": "Staphylococcus epidermis [7]; 60 μg/disc", "value": "31.3±1.08 mm and 31.3 mm"}, {"measurement": "Live/dead AO/EB double staining appearance of treated cells", "setting": "P. aeruginosa", "value": "dented, blistered and damaged cell walls; also recorded: appeared red"}, {"measurement": "Live/dead AO/EB double staining appearance of treated cells", "setting": "S. aureus", "value": "dented, blistered and damaged cell walls; also recorded: appeared red"}]}
{"smiles": "O=C1C(=Cc2ccccc2F)CNCC12C(c1ccccc1F)C1CSCN1C21C(=O)Nc2ccccc21", "note": "(stereo not drawn) [Compound 6b, spiro[5.3″ ]-oxindole-spiro-[6.2′]-6′-(2-fluorophenylmethylidene)tetrahydro-4′(1H)-pyridinone-7-(2-fluorophenyl)tetrahydro-1H-pyrrolo[1,2-c][1,3] thiazole]", "values": [{"measurement": "MBC", "setting": "Escherichia coli [1]", "value": 58.55, "unit": "µg/mL"}, {"measurement": "MIC", "setting": "Escherichia coli [1]", "value": 29.25, "unit": "µg/mL"}, {"measurement": "MBC", "setting": "Pseudomonas aeruginosa [8]", "value": 117.15, "unit": "µg/mL"}, {"measurement": "MIC", "setting": "Pseudomonas aeruginosa [8]", "value": 58.55, "unit": "µg/mL"}, {"measurement": "MBC", "setting": "Salmonella typhi [9]", "value": 117.15, "unit": "µg/mL"}, {"measurement": "MIC", "setting": "Salmonella typhi [9]", "value": 58.55, "unit": "µg/mL"}, {"measurement": "MBC", "setting": "Staphylococcus aureus [10]", "value": 117.15, "unit": "µg/mL"}, {"measurement": "MIC", "setting": "Staphylococcus aureus [10]", "value": 68.55, "unit": "µg/mL"}, {"measurement": "MBC", "setting": "Staphylococcus epidermis [2]", "value": 58.55, "unit": "µg/mL"}, {"measurement": "MIC", "setting": "Staphylococcus epidermis [2]", "value": 29.25, "unit": "µg/mL"}, {"measurement": "Zone of inhibition: diameter", "setting": "Pseudomonas aeruginosa [3]; 120 μg/disc", "value": "16.3 ± 1.63", "unit": "mm"}, {"measurement": "Zone of inhibition: diameter", "setting": "Salmonella typhi [4]; 120 μg/disc", "value": "16.3 ± 1.08", "unit": "mm"}, {"measurement": "Zone of inhibition: diameter", "setting": "Staphylococcus aureus [5]; 120 μg/disc", "value": "17.6 ± 1.47", "unit": "mm"}, {"measurement": "Zone of inhibition: diameter", "setting": "Escherichia coli [6]; 120 μg/disc", "value": "18.6 ± 1.47", "unit": "mm"}, {"measurement": "Zone of inhibition: diameter", "setting": "Staphylococcus epidermis [7]; 120 μg/disc", "value": 19.3, "unit": "mm"}]}
